Assay results reported in paper PMC7939570, “Discovery of potent histone deacetylase inhibitors with modified phenanthridine caps” (Journal of Enzyme Inhibition and Medicinal Chemistry, 2021).

Assays:
[1] = system: Hela nucleus extract containing a mixture of HDAC isoforms; assay: HDAC enzyme inhibitory assay with Hela nucleus extract; type: biochemical; conditions: 1 µM, mean of three experiments
Description: The HDAC enzyme inhibitory activities of synthesised compounds were investigated by utilising Hela nucleus extract containing a mixture of HDAC isoforms. Percentage inhibitory rate was used to determine the activity of tested compounds (Tables 1 and 2). The Fa series compounds were firstly synthesised for the activity screening. […] To investigate whether aromatic linker could improve the inhibitory activities, structural modifications were performed on current molecules.

U937 cells = assay: MTT antiproliferative assay, U937 cells; conditions: U937 cells, MTT, mean of three experiments; for inhibition at 1 µM: Homo sapiens, U-937, read-out: U937 percentage inhibitory rate, 1 µM; for U937 percentage inhibitory rate: 1 µM

Row | HDACs percentage inhibitory rate [1] [%] | Molecule | inhibition at 1 µM (U937 cells) [%] | U937 percentage inhibitory rate (U937 cells) [%]
1 | 58.36 ± 5.06 | O=C(NO)c1ccc(CNC(=O)c2ccc(-c3cc4c(cc3NC(=O)c3cccc(F)c3)OCO4)cc2)cc1 [Fb-6, 4-({4-[6–(3-Fluoro-benzoylamino)-benzo[1,3]dioxol-5-yl]-benzoylamino}-methyl)-N-Hydroxy-benzamide] | 92.2 ± 2.72 | 
2 | 20.29 ± 0.29 | O=C(CCCNC(=O)c1ccc(-c2cc3c(cc2NC(=O)c2ccc(F)c(C(F)(F)F)c2)OCO3)cc1)NO [Fa-23, 4-{4-[6–(4-Fluoro-3-trifluoromethyl-benzoylamino)-benzo[1,3]dioxol-5-yl]-benzoylamino}-N-Hydroxy-butyramide] | 17.4 ± 3.35 | 
3 | 48.27 ± 0.62 | O=C(NO)c1ccc(CNC(=O)c2ccc(-c3cc4c(cc3NC(=O)c3ccc(F)cc3)OCO4)cc2)cc1 [Fb-11, 4-({4-[6–(4-Fluoro-benzoylamino)-benzo[1,3]dioxol-5-yl]-benzoylamino}-methyl)-N-Hydroxy-benzamide] | 59.2 ± 6.95 | 
4 | 19.51 ± 4.10 | O=C(CCCNC(=O)c1ccc(-c2cc3c(cc2NC(=O)c2ccc(F)cc2F)OCO3)cc1)NO [Fa-15, 4-{4-[6–(2,4-Difluoro-benzoylamino)-benzo[1,3]dioxol-5-yl]-benzoylamino}-N-Hydroxy-butyramide] | 6.76 ± 0.26 | 
5 | 14.32 ± 2.19 | O=C(CCCNC(=O)c1ccc(-c2cc3c(cc2NC(=O)c2ccccc2)OCO3)cc1)NO [Fa-11, 4-[4–(6-Benzoylamino-benzo[1,3]dioxol-5-yl)-benzoylamino]-N-Hydroxy-butyramide] | 25.6 ± 1.76 | 
6 | 47.09 ± 0.62 | O=C(NO)c1ccc(CNC(=O)c2ccc(-c3cc4c(cc3NC(=O)c3cccc(C(F)(F)F)c3)OCO4)cc2)cc1 [Fb-8, 4-({4-[6–(3-Trifluoromethyl-benzoylamino)-benzo[1,3]dioxol-5-yl]-benzoylamino}-methyl)-N-Hydroxy-benzamide] | 78.2 ± 3.05 | 
7 | 35.97 ± 3.07 | Cc1ccccc1C(=O)Nc1cc2c(cc1-c1ccc(C(=O)NCc3ccc(C(=O)NO)cc3)cc1)OCO2 [Fb-9, 4-({4-[6–(2-Methyl-benzoylamino)-benzo[1,3]dioxol-5-yl]-benzoylamino}-methyl)-N-Hydroxy-benzamide] | 69.2 ± 3.08 | 
8 | 58.84 ± 2.40 | Nc1cc2c(cc1-c1ccc(C(=O)NCc3ccc(C(=O)NO)cc3)cc1)OCO2 [Fb-14, 4-{[4–(6-Amino-benzo[1,3]dioxol-5-yl)-benzoylamino]-methyl}-N-Hydroxy-benzamide] | 75.6 ± 2.28 | 
9 | 21.14 ± 2.55 | CCCc1ccc(C(=O)Nc2cc3c(cc2-c2ccc(C(=O)NCCCC(=O)NO)cc2)OCO3)cc1 [Fa-20, 4-{4-[6–(4-Propyl-benzoylamino)-benzo[1,3]dioxol-5-yl]-benzoylamino}-N-Hydroxy-butyramide] | 12.2 ± 0.24 | 
10 | 47.03 ± 15.05 | O=C(NO)c1ccc(CNC(=O)c2ccc(-c3cc4c(cc3NC(=O)c3ccc(C(F)(F)F)cc3)OCO4)cc2)cc1 [Fb-7, 4-({4-[6–(4-Trifluoromethyl-benzoylamino)-benzo[1,3]dioxol-5-yl]-benzoylamino}-methyl)-N-Hydroxy-benzamide] | 84.9 ± 1.68 | 
11 | 28.72 ± 4.74 | O=C(CCCNC(=O)c1ccc(-c2cc3c(cc2NC(=O)c2cc(F)cc(F)c2)OCO3)cc1)NO [Fa-14, 4-{4-[6–(3,5-Difluoro-benzoylamino)-benzo[1,3]dioxol-5-yl]-benzoylamino}-N-Hydroxy-butyramide] | 9.84 ± 0.71 | 
12 | 34.10 ± 1.02 | O=C(CCCNC(=O)c1ccc(-c2cc3c(cc2NC(=O)c2ccc(OC(F)(F)F)cc2)OCO3)cc1)NO [Fa-16, 4-{4-[6–(4-Trifluoromethoxy-benzoylamino)-benzo[1,3]dioxol-5-yl]-benzoylamino}-N-Hydroxy-butyramide] | 16.1 ± 2.82 | 
13 | 24.89 ± 4.89 | O=C(CCCNC(=O)c1ccc(-c2cc3c(cc2NC(=O)c2cc(F)ccc2F)OCO3)cc1)NO [Fa-22, 4-{4-[6–(2,5-Difluoro-benzoylamino)-benzo[1,3]dioxol-5-yl]-benzoylamino}-N-Hydroxy-butyramide] | 4.73 ± 0.64 | 
14 | 59.61 ± 6.64 | O=C(NO)c1ccc(CNC(=O)c2ccc(-c3cc4c(cc3NC(=O)c3ccccc3Cl)OCO4)cc2)cc1 [Fb-12, 4-({4-[6–(2-Chloro-benzoylamino)-benzo[1,3]dioxol-5-yl]-benzoylamino}-methyl)-N-Hydroxy-benzamide] | 76.6 ± 6.97 | 
15 | 57.50 ± 2.92 | O=C(NO)c1ccc(CNC(=O)c2ccc(-c3cc4c(cc3NC(=O)c3ccccc3)OCO4)cc2)cc1 [Fb-1, 4-{[4–(6-Benzoylamino-benzo[1,3]dioxol-5-yl)-benzoylamino]-methyl}-N-Hydroxy-benzamide] | 65.2 ± 0.29 | 
16 | 24.43 ± 2.90 | O=C(CCCNC(=O)c1ccc(-c2cc3c(cc2NC(=O)c2ccc(F)c(Cl)c2)OCO3)cc1)NO [Fa-19, 4-{4-[6–(3-Chloro-4-fluoro-benzoylamino)-benzo[1,3]dioxol-5-yl]-benzoylamino}-N-Hydroxy-butyramide] | 15.8 ± 2.29 | 
17 | 17.69 ± 3.52 | O=C(CCCNC(=O)c1ccc(-c2cc3c(cc2NC(=O)c2ccc(C(F)(F)F)cc2)OCO3)cc1)NO [Fa-12, 4-{4-[6–(4-Trifluoromethyl-benzoylamino)-benzo[1,3]dioxol-5-yl]-benzoylamino}-N-Hydroxy-butyramide] | 48.5 ± 3.98 | 
18 | 44.51 ± 0.22 | COc1ccc(C(=O)Nc2cc3c(cc2-c2ccc(C(=O)NCCCC(=O)NO)cc2)OCO3)cc1 [Fa-13, 4-{4-[6–(4-Methoxy-benzoylamino)-benzo[1,3]dioxol-5-yl]-benzoylamino}-N-Hydroxy-butyramide] | 88.9 ± 5 | 

The remaining lines, values behind:

Row | Molecule | HDACs percentage inhibitory rate [1] [%] | inhibition at 1 µM (U937 cells) [%] | U937 percentage inhibitory rate (U937 cells) [%]
19 | Cc1ccccc1C(=O)Nc1cc2c(cc1-c1ccc(C(=O)NCCCC(=O)NO)cc1)OCO2 [Fa-4, 4-{4-[6-(2-Methyl-benzoylamino)-benzo[1,3]dioxol-5-yl]-benzoylamino}-N-Hydroxy-butyramide] | 13.65 ± 4.04 | 18.2 ± 2.91 | 
20 | O=C(CCCNC(=O)c1ccc(-c2cc3c(cc2NC(=O)c2ccc(F)cc2)OCO3)cc1)NO [Fa-3, 4-{4-[6-(4-Fluoro-benzoylamino)-benzo[1,3]dioxol-5-yl]-benzoylamino}-N-Hydroxy-butyramide] | 9.22 ± 2.28 | 19.4 ± 1.44 | 
21 | O=C(CCCNC(=O)c1ccc(-c2cc3c(cc2NC(=O)c2cccc(Br)c2)OCO3)cc1)NO [Fa-1, 4-{4-[6–(3-Bromo-benzoylamino)-benzo[1,3]dioxol-5-yl]-benzoylamino}-N-Hydroxy-butyramide] | 6.63 ± 1.28 | 21 ± 0.55 | 
22 | COc1ccccc1C(=O)Nc1cc2c(cc1-c1ccc(C(=O)NCCCC(=O)NO)cc1)OCO2 [Fa-2, 4-{4-[6–(2-Methoxy-benzoylamino)-benzo[1,3]dioxol-5-yl]-benzoylamino}-N-Hydroxy-butyramide] | 15.23 ± 3.23 | 19.2 ± 1.09 | 
23 | O=C(CCCNC(=O)c1ccc(-c2cc3c(cc2NC(=O)c2cccc(F)c2)OCO3)cc1)NO [Fa-5, 4-{4-[6-(3-Fluoro-benzoylamino)-benzo[1,3]dioxol-5-yl]-benzoylamino}-N-Hydroxy-butyramide] |  | 19.9 ± 1.33 | 33.95 ± 1.70
24 | O=C(CCCNC(=O)c1ccc(-c2cc3c(cc2NC(=O)c2ccccc2Cl)OCO3)cc1)NO [Fa-10, 4-{4-[6-(2-Chloro-benzoylamino)-benzo[1,3]dioxol-5-yl]-benzoylamino}-N-Hydroxy-butyramide] | 23.41 ± 1.95 | 23 ± 1.23 | 
25 | CCc1ccc(C(=O)Nc2cc3c(cc2-c2ccc(C(=O)NCCCC(=O)NO)cc2)OCO3)cc1 [Fa-7, 4-{4-[6-(4-Ethyl-benzoylamino)-benzo[1,3]dioxol-5-yl]-benzoylamino}-N-Hydroxy-butyramide] | 25.79 ± 5.79 | 22.2 ± 2.28 | 
26 | O=C(CCCNC(=O)c1ccc(-c2cc3c(cc2NC(=O)c2cccc(C(F)(F)F)c2)OCO3)cc1)NO [Fa-9, 4-{4-[6-(3-Trifluoromethyl-benzoylamino)-benzo[1,3]dioxol-5-yl]-benzoylamino}-N-Hydroxy-butyramide] | 18.92 ± 1.30 | 20.45 ± 0.05 | 
27 | O=C(CCCNC(=O)c1ccc(-c2cc3c(cc2NC(=O)c2ccccc2C(F)(F)F)OCO3)cc1)NO [Fa-6, 4-{4-[6-(2-Trifluoromethyl-benzoylamino)-benzo[1,3]dioxol-5-yl]-benzoylamino}-N-Hydroxy-butyramide] | 24.88 ± 4.88 | 15 ± 2.47 | 
28 | CC(C)(C)OC(=O)Nc1cc2c(cc1-c1ccc(C(=O)NCc3ccc(C(=O)NO)cc3)cc1)OCO2 [Fb-13, 4-{[4–(6-Tert-Butoxycarbonylamino-benzo[1,3]dioxol-5-yl)-benzoylamino]-methyl}-N-Hydroxy-benzamide] | 48.09 ± 3.01 | 75.5 ± 2.4 | 
29 | O=C(CCCNC(=O)c1ccc(-c2cc3c(cc2NC(=O)c2ccccc2F)OCO3)cc1)NO [Fa-8, 4-{4-[6-(2-Fluoro-benzoylamino)-benzo[1,3]dioxol-5-yl]-benzoylamino}-N-Hydroxy-butyramide] | 5.32 ± 1.72 | 19.9 ± 1.96 | 
30 | 4-{4-[6–(3-Nitro-benzoylamino)-benzo[1,3]dioxol-5-yl]-benzoylamino}-N-Hydroxy-butyramide [Fa-17] | 52.44 ± 6.17 |  | 13.42 ± 0.81
